From publication PMC2853259 (Analytical biochemistry, 2010)

Target: Paraoxonase 1 (PON1) (Homo sapiens, UniProt P27169)
Type: cell-based

Paraoxonase 1 (PON1), sequence (P27169 2-355): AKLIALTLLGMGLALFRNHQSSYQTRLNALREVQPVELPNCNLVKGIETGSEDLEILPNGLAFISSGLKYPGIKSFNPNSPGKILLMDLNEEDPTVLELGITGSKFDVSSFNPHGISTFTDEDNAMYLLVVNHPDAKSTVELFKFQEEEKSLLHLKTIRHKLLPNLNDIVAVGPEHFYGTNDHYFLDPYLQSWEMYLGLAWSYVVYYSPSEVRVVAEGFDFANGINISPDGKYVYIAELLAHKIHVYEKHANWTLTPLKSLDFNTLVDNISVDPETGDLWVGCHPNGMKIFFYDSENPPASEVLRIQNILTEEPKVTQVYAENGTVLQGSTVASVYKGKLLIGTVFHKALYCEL

With Oc1ccc2ccccc2n1 [2HQ, 2-hydroxyquinoline] the IC50 was 5.4 ± 3.6 µM.
